Measured values published in the supplement of paper PMC11451515.

Test system: NOMO1
Assay: cell viability relative to DMSO control; higher = less cytotoxic
Settings: 48 h
Method in brief: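 Before seeding, each leukemia line was adapted for at least four passages in each medium. NOMO1 or SEM cells (500 cells/well) and P12-Ichikawa cells (1000 cells/well) went into 1536-well plates at 5 μl, then received library compounds in DMSO by pin dosing across 11 threefold concentrations, 47 μM to 0.79 nM. Readout was CellTiter-Glo One luminescence after 48 h at 37°C, and viability is given as a per-plate percentage of DMSO wells, with cell-free wells as background.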

[1] = HPLM + 10% dialyzed FBS, 0.000781 µM
[2] = HPLM + 10% dialyzed FBS, 0.00234 µM
[3] = HPLM + 10% dialyzed FBS, 0.00702 µM
[4] = HPLM + 10% dialyzed FBS, 0.0211 µM
[5] = HPLM + 10% dialyzed FBS, 0.0632 µM
[6] = HPLM + 10% dialyzed FBS, 0.19 µM
[7] = HPLM + 10% dialyzed FBS, 0.569 µM
[8] = HPLM + 10% dialyzed FBS, 1.71 µM
[9] = HPLM + 10% dialyzed FBS, 5.12 µM
[10] = HPLM + 10% dialyzed FBS, 15.4 µM
[11] = HPLM + 10% dialyzed FBS, 46.1 µM
[12] = RPMI 5 mM glucose + 10% FBS, 0.000781 µM
[13] = RPMI 5 mM glucose + 10% FBS, 0.00234 µM
[14] = RPMI 5 mM glucose + 10% FBS, 0.00702 µM
[15] = RPMI 5 mM glucose + 10% FBS, 0.0211 µM
[16] = RPMI 5 mM glucose + 10% FBS, 0.0632 µM
[17] = RPMI 5 mM glucose + 10% FBS, 0.19 µM
[18] = RPMI 5 mM glucose + 10% FBS, 0.569 µM
[19] = RPMI 5 mM glucose + 10% FBS, 1.71 µM
[20] = RPMI 5 mM glucose + 10% FBS, 5.12 µM
[21] = RPMI 5 mM glucose + 10% FBS, 15.4 µM
[22] = RPMI 5 mM glucose + 10% FBS, 46.1 µM
[23] = RPMI 5 mM glucose + 10% dialyzed FBS, 0.000781 µM
[24] = RPMI 5 mM glucose + 10% dialyzed FBS, 0.00234 µM
[25] = RPMI 5 mM glucose + 10% dialyzed FBS, 0.00702 µM
[26] = RPMI 5 mM glucose + 10% dialyzed FBS, 0.0211 µM
[27] = RPMI 5 mM glucose + 10% dialyzed FBS, 0.0632 µM
[28] = RPMI 5 mM glucose + 10% dialyzed FBS, 0.19 µM
[29] = RPMI 5 mM glucose + 10% dialyzed FBS, 0.569 µM
[30] = RPMI 5 mM glucose + 10% dialyzed FBS, 1.71 µM
[31] = RPMI 5 mM glucose + 10% dialyzed FBS, 5.12 µM
[32] = RPMI 5 mM glucose + 10% dialyzed FBS, 15.4 µM
[33] = RPMI 5 mM glucose + 10% dialyzed FBS, 46.1 µM

Structure (SMILES) | cell viability [1] | cell viability [2] | cell viability [3] | cell viability [4] | cell viability [5] | cell viability [6] | cell viability [7] | cell viability [8] | cell viability [9] | cell viability [10] | cell viability [11] | cell viability [12] | cell viability [13] | cell viability [14] | cell viability [15] | cell viability [16] | cell viability [17] | cell viability [18] | cell viability [19] | cell viability [20] | cell viability [21] | cell viability [22] | cell viability [23] | cell viability [24] | cell viability [25] | cell viability [26] | cell viability [27] | cell viability [28] | cell viability [29] | cell viability [30] | cell viability [31] | cell viability [32] | cell viability [33]
CCc1cc(C(N)=S)ccn1 | 110% | 117% | 112% | 130% | 118% | 131% | 133% | 119% | 142% | 134% | 118% | 118% | 125% | 127% | 119% | 126% | 132% | 119% | 131% | 130% | 141% | 139% | 126% | 116% | 102% | 126% | 137% | 121% | 137% | 123% | 123% | 145% | 133%
CC(C)(S)[C@@H](N)C(=O)O | 111% | 118% | 97.1% | 136% | 132% | 111% | 109% | 133% | 114% | 128% | 80.6% | 103% | 106% | 113% | 103% | 118% | 115% | 103% | 105% | 115% | 111% | 106% | 97.5% | 94.7% | 112% | 115% | 124% | 117% | 108% | 118% | 118% | 108% | 62.1%
C=C1C(=O)[C@@]23C(CC[C@@H]1[C@H]2O)[C@@]12CO[C@]3(O)[C@@H](O)[C@@H]1C(C)(C)CC[C@@H]2O (stereo not given in full) | 119% | 125% | 124% | 127% | 121% | 117% | 125% | 147% | 111% | 82% | 10.6% | 118% | 122% | 115% | 111% | 135% | 130% | 133% | 137% | 129% | 98.4% | 8.83% | 120% | 123% | 127% | 122% | 121% | 127% | 143% | 138% | 124% | 114% | 14%
NC[C@@H]1O[C@H](O[C@H]2[C@@H](O)[C@H](O[C@@H]3[C@@H](O)[C@H](N)C[C@H](N)[C@H]3O[C@H]3O[C@H](CN)[C@@H](O)[C@H](O)[C@H]3N)O[C@@H]2CO)[C@H](N)[C@@H](O)[C@@H]1O.O=S(=O)(O)O.O=S(=O)(O)O.O=S(=O)(O)O | 103% | 82.8% | 110% | 113% | 101% | 110% | 110% | 106% | 107% | 88.5% | 92.9% | 95.3% | 105% | 99.2% | 107% | 111% | 107% | 96.8% | 108% | 87.2% | 98.5% | 94.9% | 92.2% | 90.5% | 86.8% | 96.1% | 96.5% | 85.7% | 92.8% | 90.1% | 89.9% | 79.4% | 83%
CCN1\C=C(\C(O)=O)C(=O)C2=C1N=C(N3CCNCC3)C(=C2)F | 74.8% | 73.4% | 85.3% | 93% | 88.6% | 82.2% | 86.2% | 84.3% | 46% | 42% | 20.3% | 78% | 83.9% | 93% | 83.8% | 81.1% | 85.1% | 79% | 86.4% | 81.4% | 79.1% | 16% | 55.2% | 91% | 81.6% | 82.5% | 79.2% | 74.1% | 82.6% | 82.5% | 81% | 76.3% | 20.1%
CC[S+](=O)([O-])Nc1ccc2c(c1)/C(=C(/Nc1ccc(CN3CCCCC3)cc1)c1ccccc1)C(=O)N2 | 111% | 114% | 111% | 110% | 113% | 85% | 79.3% | 59.1% | 45.9% | 33.8% | 10.4% | 104% | 102% | 111% | 117% | 99.3% | 49.3% | 47.5% | 53.1% | 47.6% | 39.9% | 18.5% | 99.2% | 102% | 121% | 101% | 104% | 62% | 63.8% | 54.5% | 44.6% | 37.1% | 18.2%
C[C@]12Cc3cn[nH]c3C[C@@H]1CC[C@@H]1[C@@H]2CC[C@@]2(C)[C@H]1CC[C@]2(C)O | – | – | – | – | – | – | – | – | – | – | – | 97.1% | 102% | 100% | 105% | 106% | 103% | 109% | 112% | 100% | 92.4% | 90.7% | 102% | 119% | 122% | 120% | 114% | 105% | 103% | 92.8% | 95.3% | 109% | 96.3%
